As to `O=C(O)CS(=O)(=O)c1ccc2c(-c3ccc(Cl)cc3)noc2c1`, the melting point – broadly, the temperature of the solid-liquid transition – was in the range of 201 to 203 °C. As for `COc1ccc(CN(CCCC#N)Cc2ccc(OC)cc2)cc1`, the figure is 56 to 58 °C; as for `Nn1cc(I)c(=O)[nH]c1=O`, 195 to 196 °C; as for `Cc1ccc(C(=O)NC(Cc2ccccc2)NC(=S)Nc2cccc([N+](=O)[O-])c2)cc1` (configuration not stated), 170 to 171 °C. For `CN1CCN(CCOc2cccc3c2c2cccc4c2n3C(c2ccccc2)CO4)CC1` (configuration not stated) the value was 57 °C; for `O=C1NC(=O)C2(C(=O)N(Cc3ccc(Cl)c(Cl)c3)c3ccccc32)N1C(=O)c1ccccc1` (configuration not stated), 251 to 253 °C; for `O=C(O)COc1ccc(C(=O)c2ccccc2F)c(Cl)c1Cl`, 153 to 156 °C. As for `N=C(Nc1ccc(Cl)cc1)Nc1ncccc1OCc1cccc(Cl)c1F`, the melting point lay within 204 to 207 °C. On to `CN(C)CC1CN(c2ccccc2)NC1=N` (configuration not stated), for which the melting point lay within 117 to 118 °C. As for `Cc1c(F)cc(C(=O)O)cc1F`, the figure is 153 °C. Consider `CC(C(=O)Oc1cc(=O)n(-c2cccc(OC(F)(F)F)c2)c2ncccc12)c1ccccc1` (configuration not stated), for which the melting point is 115 to 117 °C. In turn, `CCCCCCCCCCCCSc1cc(SCCCCCCCCCCCC)c([N+](=O)[O-])c(C(=O)O)c1` showed a melting point of 74 to 77 °C. Molecule `C[C@H](N=Cc1ccc(OCc2cccc(F)c2)cc1)C(N)=O` returned a melting point of 112 °C. As for `COc1ccc(/C=C(\C#N)c2c(F)c(F)c(F)c(F)c2F)cc1OC1CCCC1`, the melting point lay in the range of 94.5 to 96 °C.

`CC1(C)CCCC2(C)C1CCC(C)(O)C2CCO` (configuration not stated) showed a melting point of 130 to 132 °C.

Molecule `CCCc1nc2c(N)nc3ccccc3c2n1CC(C)(C)CC1(C)OCCO1` came in with a melting point of 186 to 188 °C.

`NC[C@H]1COc2ccc(F)c(-c3ccc(Cl)cc3Cl)c2O1` registered a melting point of 65 °C. For `Cc1c(NC(=O)c2ccc(-c3ccccc3F)cc2F)ccc2cc(CN3CCCC3)cnc12` the value was 159 to 160 °C; for `CCCCCCCCCCCCCCCCCCOc1cc(C(=O)OC)cc(N(CC(=O)O)CC(=O)O)c1`, 119 to 123 °C; for `CC(=O)NOCc1nc2c(N)nc3c(c2n1CC(C)C)CCCC3`, 187 to 188 °C. In turn, `O=C1c2ccccc2S(=O)(=O)N1CCCCCCOc1ccccc1` yielded a melting point of 64 to 66 °C. As for `CC(C)(C(=O)O)c1ccc(Br)c([N+](=O)[O-])c1`, the melting point was 167 to 171 °C. As for `COc1ccc(COc2cc(NC(C)=O)c(Cl)cc2C(=O)CCCCCl)cc1`, the figure is 147 to 149 °C; as for `C#CCn1c(Br)c(Br)c(Br)c1C#N`, 95 to 105 °C; as for `COn1c(C)nc(N2CCc3ccccc3CC2)c(C#N)c1=O`, 144 to 145 °C.

In turn, `N#CSCC(Cl)=C(Cl)CCl` had a melting point of 60 to 63 °C.

`O=S(c1nc2ccccc2s1)N1CCOCC1` (configuration not stated) yielded a melting point of 93 to 94 °C. As for `CCN(CC)CCOc1cccc2c1c1cc(Cl)ccc1n2Cc1ccccc1`, the figure is 96 to 97.5 °C; as for `CCOC(=O)CCCCCOc1ccc(C(=O)Nc2ccccc2Sc2ccccc2-c2nnn[nH]2)cc1`, 137 to 138 °C; as for `NC(=O)c1cc(-c2ccc(Cl)cc2)n(-c2ccc(S(N)(=O)=O)cc2)n1`, 108 to 110 °C. For the molecule `O=C(Nc1cccc2c(=O)cc(-c3nnn[nH]3)oc12)c1ccc2c(c1)CCC(COCc1ccccc1)O2` (configuration not stated), the melting point was 214 to 216 °C. `NS(=O)(=O)Oc1ccc(F)cc1`: the melting point lay within 82.5 to 85.5 °C. Take `N#CC(C#N)=C(NCCCN1CCCCC1)NCCCN1CCCCC1`: the melting point is 110 to 112 °C. With `O=C(NCCc1ccccc1)C(F)(F)F`, the melting point lay within 50 to 52 °C. `COC(=O)c1[nH]ccc1O` came in with a melting point of 100 to 102 °C. As for `CC(C=CC=C(C)C=CC1C(C)=CC(=O)CC1(C)C)=CC=CC=C(C)C=CC=C(C)C=CC1C(C)=CC(=O)CC1(C)C` (configuration not stated), the figure is 185 to 187 °C; as for `COc1cc2cc(Cc3ccccc3)c(C)cc2c(C(C)C)c1OC`, 159 to 161 °C; as for `Clc1ccc(CNc2ccccc2-n2ccnc2)c(Cl)c1`, 100 to 103 °C. `O=C1Nc2ccccc2N(C(=O)N2CCCC(CCCN3CCCCC3)C2)c2ncccc21` (configuration not stated) yielded a melting point of 166 to 167 °C. Regarding `Cc1ccc2nc3n(c2c1)CCC3`, the melting point fell in the range of 118 to 120 °C. For the molecule `CSCCN(C)C(=O)N(C)c1cnc(-c2cncc(F)c2)s1`, the melting point was in the range of 68 to 69 °C. `CCC(CC)n1nnc2c(Oc3c(C)cc(C)cc3C)nc(C)nc21` showed a melting point of 92 °C. `Cc1cc(-c2nc3cccnn3c2-c2ccnc(NC(=O)NC(C)C)c2)ccc1F`: the melting point lay within 232 to 233 °C. Consider `FC(F)(F)c1cnc(Cc2ccc(Cl)cc2)c(Cl)c1`, for which the melting point lay within 54 to 56 °C. For `O=C(O)C1=Cc2cc(Cl)ccc2N(Cc2ccc(C(F)(F)F)cc2)C1C(F)(F)F` (configuration not stated) the value was 229 to 231 °C; for `N=C(N)Nc1nc(CSCCNC(=O)c2cccc(NS(=O)(=O)c3ccccc3)c2)cs1`, 175 to 178 °C; for `CCCCNC(=S)c1ccc2c(c1)N(C(C)CN(C)C)c1ccccc1S2` (racemic), 154 °C. For the molecule `COc1cc2ncc(C#N)c(Nc3cccc(Br)c3)c2cc1OC`, the melting point lay within 224 to 228 °C. `Cc1c2c(cc3c(=O)c4c(F)cccc4oc13)CC(C(=O)O)O2` (configuration not stated) displayed a melting point of 292 to 295 °C.

As for `Cc1cc2nncc(O)c2cc1C`, the melting point was over 260 °C.

`Cc1sc(N)c(C(=O)c2ccco2)c1C` showed a melting point of 95 to 97 °C. `CC(=O)CC(=O)NC12CC3CC(CC(C3)C1)C2` registered a melting point of 80 °C. `Cc1ccc(C(C=O)=CN(C)C)c([N+](=O)[O-])c1` gave a melting point of 117 to 119 °C. The molecule `Cc1ccc(-c2nc3sc4ccccc4n3c2CC(=O)N(C)C)s1` displayed a melting point of 216 to 218 °C. `O=C(O)Cc1ccc(-c2ccc(F)cc2F)cc1` showed a melting point of 143 to 145 °C.

The molecule `Cc1nc(C=CNC(=O)c2cccc(C(F)(F)F)c2)n[nH]1` yielded a melting point of 153 to 154 °C. `O=C(Nc1ccc(CCCc2nnn[nH]2)cc1)C(F)(F)C(F)(F)C(F)(F)F` showed a melting point of 144 to 145 °C. As for `O=C(O)C(Cl)=C(Cl)C(=O)N(CCCl)CCCl`, the melting point is 107 to 110 °C. As for `CNc1cc(OC)c(OC)cc1C(C)=O`, the figure is 121 to 124 °C.

As to `O=[N+]([O-])C1([N+](=O)[O-])CN(C(F)(F)F)C1`, the melting point was 70 to 71 °C. As for `Fc1ccc2c(C3CCN(CC4COc5ccccc5O4)CC3)noc2c1` (configuration not stated), the figure is 86 to 87 °C; as for `CN1C(=O)C[C@]2(c3ccccc3)CCCC[C@H]2C1=O` (relative stereo), 151 to 153 °C; as for `Cn1c([N+](=O)[O-])cnc1-c1cc(C(N)=O)on1`, 235 to 238 °C. `Cc1nn(C)c(C)c1Oc1cc(Cl)cc(C#N)c1` returned a melting point of 114 to 116 °C. In turn, `COc1ccc(S(=O)(=O)OCC(=O)CC(C)C2CCCCC2)cc1` (configuration not stated) registered a melting point of 52 to 53 °C. With `c1ccc(-c2cn3ncsc3n2)cc1`, the melting point was in the range of 127 to 130 °C.

For the molecule `CC(C)(C)C(=O)OCOC(=O)C(C)(C)n1nc2ccc(NCCCN3CCC(OC(c4ccccc4)c4ccccc4)CC3)nn2c1=O`, the melting point is 162 °C. `CCC(=N)Nc1ccccc1N1CCOCC1`: the melting point was 114 °C. For `COc1ccc(Cl)c(C(N)=O)c1F`, the melting point is 154 to 156 °C. On to `O=C(O)c1cn(C2CC2)c2cc(Cl)c(F)c(Cl)c2c1=O`, for which the melting point fell in the range of 277 to 278 °C.

`CCC(=O)N1N=C(c2ccc(N)cc2)c2cc(C)ccc2CC1C` (configuration not stated): the melting point lay within 166 to 168 °C. `O=C(O)Cc1noc(Cc2ccccc2)n1`: the melting point was in the range of 109 to 112 °C. `CN(C)CCCC(O)c1ccc(F)cc1-c1ccccc1` (configuration not stated) returned a melting point of 60 to 62 °C. Molecule `CCOC(=O)c1cc2cc(-c3ccccc3)ccc2[nH]1` yielded a melting point of 173 to 174 °C. Take `O=C(O)COc1ccc(C(=CC(=O)NCc2cccnc2)c2ccccc2)cc1`: the melting point was in the range of 187 to 189 °C. For `CC(C)NC(=O)C(C#N)=Cc1cc(O)c(O)c([N+](=O)[O-])c1` the value was 243 to 245 °C. Molecule `Cc1nc(N)sc1-c1ccnc(Nc2ccc3c(c2)OCO3)n1` gave a melting point of 211 to 213 °C. Turning to `CCCN(CCC)C1Cc2cc3c(cc2C1)C(=O)N(Cc1ccc(C#N)cc1)C3` (configuration not stated), the melting point was in the range of 141 to 145 °C.

Take `Cc1cc(C(=O)NC2CC2)ccc1N1CCN(Cc2cc(C)c3c(c2)NC(=O)C(C)O3)CC1` (configuration not stated): the melting point was in the range of 241 to 242 °C. Turning to `Nc1cccc(C(=O)c2cc3c(Oc4ccc(Cl)cc4)cncc3s2)c1`, the melting point lay within 174 to 178 °C. Take `CC(C)c1[nH]n(-c2c(Cl)cc(Cl)cc2Cl)c2nc(Cc3ccc(N(C(=O)OC(C)(C)C)C(=O)[C@@H]4CCCN4)cc3)nc(=O)c1-2`: the melting point lay within 225 to 226 °C.

`CN(Cc1ccc2nsnc2c1)C1CCN(C(=O)c2ccc(Nc3nccc(Nc4ccc(F)cc4)n3)cc2)CC1` gave a melting point of 191 to 192 °C. As for `O=C(CC12CC3CC(CC(C3)C1)C2)Nc1cccc2nc(CCCNCCCO)ccc12`, the melting point was 130 to 135 °C. For the molecule `Cc1cc(=O)n2nc(-c3ccncc3)nc2n1C`, the melting point lay in the range of 263 to 267 °C. Molecule `COc1cc(O)cc(Cc2cnc(N)nc2N)c1` registered a melting point of 246 to 248 °C. `Cc1oc2c(NC(=O)c3c(Cl)cccc3Cl)cc(NC(N)=O)cc2c1C`: the melting point was over 250 °C. For `COC(=O)[C@H]1CO[C@@H](C(C)(C)C)N1C(=O)Cl`, the melting point came to 78 °C.

In the case of `CC(=O)NCC1(N2CCN(C)CC2)CCCCC1`, the melting point lay in the range of 110 to 111 °C. For `Nc1ccc(Sc2nnc3ccc(-c4ccc(F)cc4)cn23)cc1` the value was 217 °C; for `CCC=CCn1c(C)c(C)c2cnnc(OCc3ccccc3)c21`, 92 to 93 °C; for `Clc1ccc(C#Cc2c3ccccc3c(C#Cc3ccc(Cl)cc3)c3ccccc23)cc1`, 268 °C. As for `CC(C)(CN1CCCCC1)Nc1ccnc2cc(Cl)ccc12`, the figure is 143 to 147 °C.

Source of the values: a melting point compilation (Tetko et al.; mined from patent text by program, amines drawn as free bases though some values may be those of a salt).
